Measurements as given in the kinase profiling compilation of Christmann-Franck et al. (2016).

Assays:
Experiment in all cases: radiometric filter-binding kinase assay
BRSK1 (human) = BRSK1 (human) (UniProt Q8TDC3)
BTK (human) = BTK (human) (UniProt Q06187)
CAMKK2 (human) = CAMKK2 (human) (UniProt Q96RR4)
CDK2 CCNA2 (human) = CDK2 CCNA2 (human) (UniProt P20248+P24941)
CSK (human) = CSK (human) (UniProt P41240)
CaMK1 (human) = CaMK1 (human) (UniProt Q14012)
DYRK2 (human) = DYRK2 (human) (UniProt Q92630)
EPHA2 (human) = EPHA2 (human) (UniProt P29317)
EPHA4 (human) = EPHA4 (human) (UniProt P54764)
EPHB2 (human) = EPHB2 (human) (UniProt P29323)
ERBB4 (human) = ERBB4 (human) (UniProt Q15303)
HIPK3 (human) = HIPK3 (human) (UniProt Q9H422)
INSR (human) = INSR (human) (UniProt P06213)
INSRR (human) = INSRR (human) (UniProt P14616)
JAK2 JH1 JH2 (human) = JAK2 JH1 JH2 (human) (UniProt O60674)
LCK (mouse) = conditions: accession and sequence are those of the human protein
MAP2K1 (human) = MAP2K1 (human) (UniProt Q02750)
MAPK15 (human) = MAPK15 (human) (UniProt Q8TD08)
MAPKAPK2 (human) = MAPKAPK2 (human) (UniProt P49137)
MARK1 (human) = MARK1 (human) (UniProt Q9P0L2)
MARK2 (human) = MARK2 (human) (UniProt Q7KZI7)
MINK1 (human) = MINK1 (human) (UniProt Q8N4C8)
MKNK1 (human) = MKNK1 (human) (UniProt Q9BUB5)
MST4 (human) = MST4 (human) (UniProt Q9P289)
NEK2 (human) = NEK2 (human) (UniProt P51955)
NEK6 (human) = NEK6 (human) (UniProt Q9HC98)
NUAK1 (human) = NUAK1 (human) (UniProt O60285)
PAK7 (human) = PAK7 (human) (UniProt Q9P286)
PHKG1 (human) = PHKG1 (human) (UniProt Q16816)
PRKAA1 or PRKAA2 (rat) = conditions: accession and sequence are those of the human protein
PRKACA (human) = PRKACA (human) (UniProt P17612)
PRKCA (human) = PRKCA (human) (UniProt P17252)
RIPK2 (human) = RIPK2 (human) (UniProt O43353)
RPS6KA5 KD1 KD2 (human) = RPS6KA5 KD1 KD2 (human) (UniProt O75582)
SRPK1 (human) = SRPK1 (human) (UniProt Q96SB4)

Sequence of MAP2K1 (human) (Q02750 whole entry, looked up): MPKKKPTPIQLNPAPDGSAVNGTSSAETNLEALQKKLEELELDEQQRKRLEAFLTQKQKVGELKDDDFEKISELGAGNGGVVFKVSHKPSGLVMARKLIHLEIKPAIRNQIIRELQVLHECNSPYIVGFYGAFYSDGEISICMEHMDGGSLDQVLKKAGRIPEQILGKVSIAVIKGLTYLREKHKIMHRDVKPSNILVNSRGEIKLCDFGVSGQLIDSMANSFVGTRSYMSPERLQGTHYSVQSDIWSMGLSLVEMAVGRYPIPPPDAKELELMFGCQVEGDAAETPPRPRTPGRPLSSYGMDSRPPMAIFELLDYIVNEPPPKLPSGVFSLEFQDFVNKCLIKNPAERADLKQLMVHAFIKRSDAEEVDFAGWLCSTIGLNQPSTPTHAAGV
Sequence of BRSK1 (human) (Q8TDC3 whole entry, looked up): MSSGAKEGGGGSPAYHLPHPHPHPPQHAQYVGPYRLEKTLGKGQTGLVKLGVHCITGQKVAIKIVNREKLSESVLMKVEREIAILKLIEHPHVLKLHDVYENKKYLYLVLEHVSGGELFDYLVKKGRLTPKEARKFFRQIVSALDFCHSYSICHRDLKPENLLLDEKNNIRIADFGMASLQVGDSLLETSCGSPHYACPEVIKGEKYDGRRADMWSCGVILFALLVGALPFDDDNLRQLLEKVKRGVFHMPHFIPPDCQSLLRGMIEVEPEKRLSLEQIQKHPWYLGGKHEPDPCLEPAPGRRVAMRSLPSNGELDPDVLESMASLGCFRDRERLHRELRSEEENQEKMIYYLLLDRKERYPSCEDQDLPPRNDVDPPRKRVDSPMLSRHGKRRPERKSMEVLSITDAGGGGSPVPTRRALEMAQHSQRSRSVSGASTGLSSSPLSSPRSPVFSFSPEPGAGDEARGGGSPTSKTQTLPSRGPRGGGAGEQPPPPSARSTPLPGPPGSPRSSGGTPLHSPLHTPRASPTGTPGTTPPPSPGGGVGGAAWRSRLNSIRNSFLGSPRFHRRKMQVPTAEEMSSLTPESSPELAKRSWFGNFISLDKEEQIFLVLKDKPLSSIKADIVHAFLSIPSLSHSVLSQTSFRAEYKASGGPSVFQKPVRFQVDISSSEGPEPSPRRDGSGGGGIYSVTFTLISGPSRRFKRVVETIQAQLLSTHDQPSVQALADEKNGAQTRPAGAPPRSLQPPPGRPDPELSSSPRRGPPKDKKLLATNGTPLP
Sequence of MINK1 (human) (Q8N4C8 whole entry, looked up): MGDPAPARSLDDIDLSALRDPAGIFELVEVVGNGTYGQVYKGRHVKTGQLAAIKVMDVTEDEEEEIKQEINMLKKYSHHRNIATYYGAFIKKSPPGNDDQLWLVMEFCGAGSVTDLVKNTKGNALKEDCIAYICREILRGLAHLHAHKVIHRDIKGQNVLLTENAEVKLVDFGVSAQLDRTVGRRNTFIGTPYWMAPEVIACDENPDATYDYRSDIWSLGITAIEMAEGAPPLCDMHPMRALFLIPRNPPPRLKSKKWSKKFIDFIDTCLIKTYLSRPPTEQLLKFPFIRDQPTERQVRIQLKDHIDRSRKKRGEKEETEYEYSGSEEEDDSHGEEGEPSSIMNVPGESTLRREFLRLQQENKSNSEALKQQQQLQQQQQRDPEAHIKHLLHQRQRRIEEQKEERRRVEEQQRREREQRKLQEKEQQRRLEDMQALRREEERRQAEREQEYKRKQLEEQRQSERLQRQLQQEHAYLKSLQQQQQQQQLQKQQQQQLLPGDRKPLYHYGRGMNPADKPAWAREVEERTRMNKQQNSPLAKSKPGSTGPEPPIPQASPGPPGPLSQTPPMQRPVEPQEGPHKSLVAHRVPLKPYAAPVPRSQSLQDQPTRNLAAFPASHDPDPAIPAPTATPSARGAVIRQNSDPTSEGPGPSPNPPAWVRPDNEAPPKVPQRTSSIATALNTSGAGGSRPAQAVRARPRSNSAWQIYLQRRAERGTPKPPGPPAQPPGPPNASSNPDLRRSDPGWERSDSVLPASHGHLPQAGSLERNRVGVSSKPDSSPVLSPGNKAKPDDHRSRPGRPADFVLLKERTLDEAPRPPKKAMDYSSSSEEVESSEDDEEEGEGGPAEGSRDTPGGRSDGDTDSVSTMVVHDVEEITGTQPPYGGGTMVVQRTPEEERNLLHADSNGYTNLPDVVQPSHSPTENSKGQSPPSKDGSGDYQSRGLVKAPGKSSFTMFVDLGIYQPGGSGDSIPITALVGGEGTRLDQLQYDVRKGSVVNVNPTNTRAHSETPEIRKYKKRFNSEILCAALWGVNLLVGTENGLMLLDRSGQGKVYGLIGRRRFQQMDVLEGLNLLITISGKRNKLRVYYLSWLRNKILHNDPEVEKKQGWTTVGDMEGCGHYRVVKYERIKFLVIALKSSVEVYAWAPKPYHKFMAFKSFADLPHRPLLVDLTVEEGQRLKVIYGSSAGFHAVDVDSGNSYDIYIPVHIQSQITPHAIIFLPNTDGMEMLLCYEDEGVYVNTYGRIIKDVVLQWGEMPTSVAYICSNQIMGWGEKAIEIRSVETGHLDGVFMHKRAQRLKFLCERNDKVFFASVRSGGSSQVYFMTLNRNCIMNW
Sequence of HIPK3 (human) (Q9H422 whole entry, looked up): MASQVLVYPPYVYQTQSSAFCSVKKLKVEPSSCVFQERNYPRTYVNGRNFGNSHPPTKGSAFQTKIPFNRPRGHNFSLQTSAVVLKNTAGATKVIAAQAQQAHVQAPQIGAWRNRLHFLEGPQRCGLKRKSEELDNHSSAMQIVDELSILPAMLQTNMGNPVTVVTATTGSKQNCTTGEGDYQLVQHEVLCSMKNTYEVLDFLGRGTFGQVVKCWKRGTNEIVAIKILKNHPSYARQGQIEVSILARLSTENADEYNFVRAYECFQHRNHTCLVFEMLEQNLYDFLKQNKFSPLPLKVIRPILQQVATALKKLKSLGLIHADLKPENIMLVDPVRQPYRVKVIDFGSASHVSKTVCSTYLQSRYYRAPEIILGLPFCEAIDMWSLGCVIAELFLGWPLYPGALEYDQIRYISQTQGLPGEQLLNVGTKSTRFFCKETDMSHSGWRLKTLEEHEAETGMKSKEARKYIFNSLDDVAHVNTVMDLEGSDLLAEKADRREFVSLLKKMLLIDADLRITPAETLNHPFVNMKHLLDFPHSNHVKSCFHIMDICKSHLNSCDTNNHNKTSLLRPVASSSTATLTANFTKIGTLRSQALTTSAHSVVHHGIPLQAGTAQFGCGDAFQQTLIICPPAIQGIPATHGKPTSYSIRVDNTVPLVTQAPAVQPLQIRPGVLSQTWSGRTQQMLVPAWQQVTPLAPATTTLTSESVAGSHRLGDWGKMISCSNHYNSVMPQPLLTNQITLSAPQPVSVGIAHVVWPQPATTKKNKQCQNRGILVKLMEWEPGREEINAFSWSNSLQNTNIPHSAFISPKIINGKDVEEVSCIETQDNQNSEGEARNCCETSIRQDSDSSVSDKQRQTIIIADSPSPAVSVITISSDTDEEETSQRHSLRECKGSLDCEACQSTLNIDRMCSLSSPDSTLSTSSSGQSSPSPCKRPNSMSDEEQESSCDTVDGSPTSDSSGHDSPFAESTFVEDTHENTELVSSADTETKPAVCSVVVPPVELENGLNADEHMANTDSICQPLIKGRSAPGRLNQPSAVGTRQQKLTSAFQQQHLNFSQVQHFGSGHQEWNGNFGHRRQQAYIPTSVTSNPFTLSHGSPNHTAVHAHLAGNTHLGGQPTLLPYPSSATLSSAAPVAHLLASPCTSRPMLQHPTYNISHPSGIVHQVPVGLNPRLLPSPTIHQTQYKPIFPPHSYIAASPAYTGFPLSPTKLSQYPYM
Sequence of PHKG1 (human) (Q16816 whole entry, looked up): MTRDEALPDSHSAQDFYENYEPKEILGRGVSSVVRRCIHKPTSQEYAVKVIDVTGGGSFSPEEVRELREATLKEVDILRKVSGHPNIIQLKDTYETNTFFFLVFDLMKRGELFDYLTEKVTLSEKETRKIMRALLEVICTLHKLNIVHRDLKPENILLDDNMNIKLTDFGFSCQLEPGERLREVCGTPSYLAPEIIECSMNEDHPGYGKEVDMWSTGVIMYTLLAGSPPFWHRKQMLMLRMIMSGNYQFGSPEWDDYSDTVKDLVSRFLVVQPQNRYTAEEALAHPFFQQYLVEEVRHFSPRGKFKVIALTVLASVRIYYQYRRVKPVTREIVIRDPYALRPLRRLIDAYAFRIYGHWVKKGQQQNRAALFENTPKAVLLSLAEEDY
Sequence of EPHA2 (human) (P29317 whole entry, looked up): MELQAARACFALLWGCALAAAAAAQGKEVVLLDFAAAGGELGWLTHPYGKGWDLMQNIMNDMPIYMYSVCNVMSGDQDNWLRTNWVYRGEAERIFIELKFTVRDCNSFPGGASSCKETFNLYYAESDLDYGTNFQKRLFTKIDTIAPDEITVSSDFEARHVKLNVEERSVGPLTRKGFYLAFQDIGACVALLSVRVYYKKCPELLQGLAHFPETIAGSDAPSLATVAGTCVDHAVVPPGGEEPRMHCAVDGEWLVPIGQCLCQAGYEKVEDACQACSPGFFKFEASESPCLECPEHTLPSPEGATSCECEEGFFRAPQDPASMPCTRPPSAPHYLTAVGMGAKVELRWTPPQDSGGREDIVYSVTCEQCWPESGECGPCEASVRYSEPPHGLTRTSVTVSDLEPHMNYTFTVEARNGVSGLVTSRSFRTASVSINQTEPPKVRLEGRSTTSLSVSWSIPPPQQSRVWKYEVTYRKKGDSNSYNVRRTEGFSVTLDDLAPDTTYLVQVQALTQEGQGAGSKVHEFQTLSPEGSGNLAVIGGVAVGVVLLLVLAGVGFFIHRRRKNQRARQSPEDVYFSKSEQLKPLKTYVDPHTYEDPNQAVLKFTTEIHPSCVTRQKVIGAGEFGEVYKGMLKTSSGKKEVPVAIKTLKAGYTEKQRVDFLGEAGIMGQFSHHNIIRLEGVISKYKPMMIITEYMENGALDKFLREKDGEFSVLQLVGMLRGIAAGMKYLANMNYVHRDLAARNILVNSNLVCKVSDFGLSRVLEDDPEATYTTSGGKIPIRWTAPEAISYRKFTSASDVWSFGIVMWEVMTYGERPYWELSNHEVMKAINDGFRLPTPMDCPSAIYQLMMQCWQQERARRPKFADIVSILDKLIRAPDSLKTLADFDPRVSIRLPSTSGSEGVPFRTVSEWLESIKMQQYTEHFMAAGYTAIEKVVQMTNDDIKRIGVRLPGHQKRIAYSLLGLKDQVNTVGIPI

SMILES: CNc1nc(-c2ccc3c(N)n[nH]c3c2)cc(N2C[C@@H](C(=O)NC3CCCCC3)CC[C@H]2C)n1
- residual activity (BRSK1 (human); compound 0.01 µM): 110%
- residual activity (BRSK1 (human); compound 0.1 µM): 95%
- residual activity (BRSK1 (human); compound 1.0 µM): 53%
- residual activity (BRSK1 (human); compound 10.0 µM): 11%
- residual activity (BTK (human); compound 0.01 µM): 126%
- residual activity (BTK (human); compound 0.1 µM): 121%
- residual activity (BTK (human); compound 1.0 µM): 97%
- residual activity (BTK (human); compound 10.0 µM): 90%
- residual activity (CAMKK2 (human); compound 0.01 µM): 112%
- residual activity (CAMKK2 (human); compound 0.1 µM): 123%
- residual activity (CAMKK2 (human); compound 1.0 µM): 99%
- residual activity (CAMKK2 (human); compound 10.0 µM): 91%
- residual activity (CDK2 CCNA2 (human); compound 0.01 µM): 104%
- residual activity (CDK2 CCNA2 (human); compound 0.1 µM): 101%
- residual activity (CDK2 CCNA2 (human); compound 1.0 µM): 103%
- residual activity (CDK2 CCNA2 (human); compound 10.0 µM): 85%
- residual activity (CSK (human); compound 0.01 µM): 103%
- residual activity (CSK (human); compound 0.1 µM): 104%
- residual activity (CSK (human); compound 1.0 µM): 100%
- residual activity (CSK (human); compound 10.0 µM): 93%
- residual activity (CaMK1 (human); compound 0.01 µM): 108%
- residual activity (CaMK1 (human); compound 0.1 µM): 112%
- residual activity (CaMK1 (human); compound 1.0 µM): 89%
- residual activity (CaMK1 (human); compound 10.0 µM): 95%
- residual activity (DYRK2 (human); compound 0.01 µM): 100%
- residual activity (DYRK2 (human); compound 0.1 µM): 108%
- residual activity (DYRK2 (human); compound 1.0 µM): 97%
- residual activity (EPHA2 (human); compound 0.01 µM): 110%
- residual activity (EPHA2 (human); compound 0.1 µM): 118%
- residual activity (EPHA2 (human); compound 1.0 µM): 100%
- residual activity (EPHA2 (human); compound 10.0 µM): 84%
- residual activity (EPHA4 (human); compound 1.0 µM): 86%
- residual activity (EPHA4 (human); compound 10.0 µM): 98%
- residual activity (EPHB2 (human); compound 1.0 µM): 119%
- residual activity (EPHB2 (human); compound 10.0 µM): 111%
- residual activity (ERBB4 (human); compound 0.01 µM): 106%
- residual activity (ERBB4 (human); compound 0.1 µM): 107%
- residual activity (ERBB4 (human); compound 1.0 µM): 106%
- residual activity (ERBB4 (human); compound 10.0 µM): 101%
- residual activity (HIPK3 (human); compound 0.01 µM): 111%
- residual activity (HIPK3 (human); compound 0.1 µM): 105%
- residual activity (HIPK3 (human); compound 1.0 µM): 99%
- residual activity (HIPK3 (human); compound 10.0 µM): 103%
- residual activity (INSR (human); compound 0.01 µM): 101%
- residual activity (INSR (human); compound 0.1 µM): 103%
- residual activity (INSR (human); compound 1.0 µM): 101%
- residual activity (INSR (human); compound 10.0 µM): 89%
- residual activity (INSRR (human); compound 0.01 µM): 111%
- residual activity (INSRR (human); compound 0.1 µM): 111%
- residual activity (INSRR (human); compound 1.0 µM): 117%
- residual activity (JAK2 JH1 JH2 (human); compound 1.0 µM): 108%
- residual activity (JAK2 JH1 JH2 (human); compound 10.0 µM): 99%
- residual activity (LCK (mouse); compound 0.01 µM): 112%
- residual activity (LCK (mouse); compound 0.1 µM): 107%
- residual activity (LCK (mouse); compound 1.0 µM): 97%
- residual activity (LCK (mouse); compound 10.0 µM): 99%
- residual activity (MAP2K1 (human); compound 0.01 µM): 86%
- residual activity (MAP2K1 (human); compound 0.1 µM): 101%
- residual activity (MAP2K1 (human); compound 1.0 µM): 85%
- residual activity (MAP2K1 (human); compound 10.0 µM): 74%
- residual activity (MAPK15 (human); compound 0.01 µM): 106%
- residual activity (MAPK15 (human); compound 0.1 µM): 117%
- residual activity (MAPK15 (human); compound 1.0 µM): 99%
- residual activity (MAPK15 (human); compound 10.0 µM): 83%
- residual activity (MAPKAPK2 (human); compound 0.01 µM): 104%
- residual activity (MAPKAPK2 (human); compound 0.1 µM): 111%
- residual activity (MAPKAPK2 (human); compound 1.0 µM): 86%
- residual activity (MAPKAPK2 (human); compound 10.0 µM): 84%
- residual activity (MARK1 (human); compound 1.0 µM): 99%
- residual activity (MARK1 (human); compound 10.0 µM): 84%
- residual activity (MARK2 (human); compound 0.01 µM): 113%
- residual activity (MARK2 (human); compound 0.1 µM): 114%
- residual activity (MARK2 (human); compound 1.0 µM): 96%
- residual activity (MARK2 (human); compound 10.0 µM): 102%
- residual activity (MINK1 (human); compound 0.01 µM): 121%
- residual activity (MINK1 (human); compound 0.1 µM): 110%
- residual activity (MINK1 (human); compound 1.0 µM): 89%
- residual activity (MINK1 (human); compound 10.0 µM): 74%
- residual activity (MKNK1 (human); compound 0.01 µM): 106%
- residual activity (MKNK1 (human); compound 0.1 µM): 108%
- residual activity (MKNK1 (human); compound 1.0 µM): 111%
- residual activity (MKNK1 (human); compound 10.0 µM): 92%
- residual activity (MST4 (human); compound 0.01 µM): 112%
- residual activity (MST4 (human); compound 0.1 µM): 108%
- residual activity (MST4 (human); compound 1.0 µM): 102%
- residual activity (MST4 (human); compound 10.0 µM): 102%
- residual activity (NEK2 (human); compound 0.01 µM): 118%
- residual activity (NEK2 (human); compound 0.1 µM): 118%
- residual activity (NEK2 (human); compound 1.0 µM): 94%
- residual activity (NEK2 (human); compound 10.0 µM): 91%
- residual activity (NEK6 (human); compound 0.01 µM): 98%
- residual activity (NEK6 (human); compound 0.1 µM): 101%
- residual activity (NEK6 (human); compound 1.0 µM): 84%
- residual activity (NEK6 (human); compound 10.0 µM): 79%
- residual activity (NUAK1 (human); compound 0.01 µM): 120%
- residual activity (NUAK1 (human); compound 0.1 µM): 105%
- residual activity (NUAK1 (human); compound 1.0 µM): 47%
- residual activity (NUAK1 (human); compound 10.0 µM): 9%
- residual activity (PAK7 (human); compound 0.01 µM): 97%
- residual activity (PAK7 (human); compound 0.1 µM): 101%
- residual activity (PAK7 (human); compound 1.0 µM): 97%
- residual activity (PAK7 (human); compound 10.0 µM): 99%
- residual activity (PHKG1 (human); compound 0.01 µM): 106%
- residual activity (PHKG1 (human); compound 0.1 µM): 108%
- residual activity (PHKG1 (human); compound 1.0 µM): 101%
- residual activity (PHKG1 (human); compound 10.0 µM): 78%
- residual activity (PRKAA1 or PRKAA2 (rat); compound 0.01 µM): 107%
- residual activity (PRKAA1 or PRKAA2 (rat); compound 0.1 µM): 111%
- residual activity (PRKAA1 or PRKAA2 (rat); compound 1.0 µM): 91%
- residual activity (PRKAA1 or PRKAA2 (rat); compound 10.0 µM): 44%
- residual activity (PRKACA (human); compound 0.01 µM): 103%
- residual activity (PRKACA (human); compound 0.1 µM): 111%
- residual activity (PRKACA (human); compound 1.0 µM): 102%
- residual activity (PRKACA (human); compound 10.0 µM): 84%
- residual activity (PRKCA (human); compound 0.01 µM): 104%
- residual activity (PRKCA (human); compound 0.1 µM): 105%
- residual activity (PRKCA (human); compound 1.0 µM): 98%
- residual activity (PRKCA (human); compound 10.0 µM): 96%
- residual activity (RIPK2 (human); compound 0.01 µM): 110%
- residual activity (RIPK2 (human); compound 0.1 µM): 114%
- residual activity (RIPK2 (human); compound 1.0 µM): 116%
- residual activity (RIPK2 (human); compound 10.0 µM): 100%
- residual activity (RPS6KA5 KD1 KD2 (human); compound 0.01 µM): 102%
- residual activity (RPS6KA5 KD1 KD2 (human); compound 0.1 µM): 100%
- residual activity (RPS6KA5 KD1 KD2 (human); compound 1.0 µM): 95%
- residual activity (RPS6KA5 KD1 KD2 (human); compound 10.0 µM): 66%
- residual activity (SRPK1 (human); compound 0.01 µM): 106%
- residual activity (SRPK1 (human); compound 0.1 µM): 120%
- residual activity (SRPK1 (human); compound 1.0 µM): 104%
- residual activity (SRPK1 (human); compound 10.0 µM): 90%
